Experimental data taken from US11453660B2, “Androgen receptor and glucocorticoid receptor modulators” (ONCOSTELLAE, S.L., priority 2017, dated 2022).

target: T1, AR-Receptor (Homo sapiens, UniProt P10275); experiment: Functional Assay AR-Receptor (MDA-MB-453 cells, luciferase); format: cell-based; settings: antagonist effect in the presence of DHT 1 nM, 24 h, luciferase luminescence, read-out: AR antag KB
T1 sequence (P10275 1-920 Q868H): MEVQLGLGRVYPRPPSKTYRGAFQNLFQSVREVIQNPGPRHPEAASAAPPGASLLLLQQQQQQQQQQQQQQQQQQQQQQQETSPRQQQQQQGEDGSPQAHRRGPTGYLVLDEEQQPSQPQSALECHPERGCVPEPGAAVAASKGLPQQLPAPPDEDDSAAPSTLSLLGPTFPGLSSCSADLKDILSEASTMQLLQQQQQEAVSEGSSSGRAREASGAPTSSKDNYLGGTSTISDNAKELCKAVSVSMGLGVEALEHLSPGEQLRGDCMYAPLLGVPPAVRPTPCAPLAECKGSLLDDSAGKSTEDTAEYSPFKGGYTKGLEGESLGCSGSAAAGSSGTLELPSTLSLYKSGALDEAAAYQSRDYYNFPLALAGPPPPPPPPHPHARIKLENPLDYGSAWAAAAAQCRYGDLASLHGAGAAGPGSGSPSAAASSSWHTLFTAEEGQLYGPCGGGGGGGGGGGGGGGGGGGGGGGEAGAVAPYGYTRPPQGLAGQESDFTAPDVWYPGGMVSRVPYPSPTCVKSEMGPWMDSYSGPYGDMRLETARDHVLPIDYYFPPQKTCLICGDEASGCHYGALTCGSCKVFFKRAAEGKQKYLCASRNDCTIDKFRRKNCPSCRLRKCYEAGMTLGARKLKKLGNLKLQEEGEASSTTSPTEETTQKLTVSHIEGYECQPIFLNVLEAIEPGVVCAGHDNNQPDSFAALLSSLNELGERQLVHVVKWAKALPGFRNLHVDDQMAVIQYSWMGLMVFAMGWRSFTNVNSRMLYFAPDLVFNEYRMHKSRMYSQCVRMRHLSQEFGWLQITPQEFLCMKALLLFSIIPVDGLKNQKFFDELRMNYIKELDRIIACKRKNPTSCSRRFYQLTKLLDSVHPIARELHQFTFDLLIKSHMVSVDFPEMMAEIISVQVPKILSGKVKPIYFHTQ
Method in brief: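 MDA-MB-453 cells, 8000/well, were switched to medium with 0.1% FBS and exposed to compounds for 24 h at 37 °C. Antagonist mode used 1 nM DHT. After lysis and a freeze-thaw cycle, luciferase luminescence was read.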

SMILES | Kb [µM]
CC1=C(C(=O)C2CC2)C(c2csc3c(C#N)cccc23)C(C(=O)OCC2CC2)=C(N)N1 (centres unmarked) [Example D31, Cyclopropylmethyl 2-amino-4-(7-cyanobenzo[b]thiophen-3-yl)-5-(cyclopropanecarbonyl)-6-methyl-1,4-dihydropyridine-3-carboxylate] | 0.1 to 1
COC(=O)C1=C(C)NC(C=O)=C(C(=O)OC)C1c1csc2c(C#N)cccc12 (centres unmarked) [Example C119, Dimethyl 4-(7-cyanobenzo[b]thiophen-3-yl)-2-formyl-6-methyl-1,4-dihydropyridine-3,5-dicarboxylate] | 0.1 to 1
CC(=O)C1=C(C)NC(C)=C(C(=O)OCc2ccc(C#N)cc2)C1c1csc2ncccc12 (centres unmarked) [Example C73, 4-cyanobenzyl 5-acetyl-2,6-dimethyl-4-(thieno[2,3-b]pyridin-3-yl)-1,4-dihydropyridine-3-carboxylate] | ≥ 1
COC(=O)C1=C(C2CC2)NC(C)=C(C(C)=O)C1c1csc2ncccc12 (centres unmarked) [Example J23, Methyl 5-acetyl-2-cyclopropyl-6-methyl-4-(thieno[2,3-b]pyridin-3-yl)-1,4-dihydropyridine-3-carboxylate] | ≥ 1
CC(=O)C1=C(C)NC(C2CC2)=C(C(=O)OCc2ccncc2)C1c1csc2c(Br)cccc12 (centres unmarked) [Example J41, Pyridin-4-ylmethyl 5-acetyl-4-(7-bromobenzo[b]thiophen-3-yl)-2-cyclopropyl-6-methyl-1,4-dihydropyridine-3-carboxylate] | 0.1 to 1
CC1=C(C(=O)OCC2CC2)C(c2csc3c(C#N)cccc23)C(C(=O)OCC2CC2)=C(N)N1 (centres unmarked) [Example D46, Bis(cyclopropylmethyl) 2-amino-4-(7-cyanobenzo[b]thiophen-3-yl)-6-methyl-1,4-dihydropyridine-3,5-dicarboxylate] | ≥ 1
CC(=O)C1=C(C)NC(C)=C(C(=O)OCC2CCOCC2)C1c1csc2ccc(F)cc12 (centres unmarked) [Example C44, (Tetrahydro-2H-pyran-4-yl)methyl 5-acetyl-4-(5-fluorobenzo[b]thiophen-3-yl)-2,6-dimethyl-1,4-dihydropyridine-3-carboxylate] | 0.1 to 1
CC(=O)C1=C(C)NC(C)=C(C(=O)OCc2ccc(-c3cccnc3)cc2)C1c1csc2ncccc12 (centres unmarked) [Example L2, 4-(pyridin-3-yl)benzyl 5-acetyl-2,6-dimethyl-4-(thieno[2,3-b]pyridin-3-yl)-1,4-dihydropyridine-3-carboxylate] | 0.1 to 1
CC(=O)C1=C(C)NC(C)=C(C(=O)OCC2CCOCC2)C1c1csc2ccccc12 (centres unmarked) [Example C2, (Tetrahydro-2H-pyran-4-yl)methyl 5-acetyl-4-(benzo[b]thiophen-3-yl)-2,6-dimethyl-1,4-dihydropyridine-3-carboxylate] | 0.1 to 1
CC(=O)C1=C(C)NC(C)=C(C(=O)OCc2cccc(Br)c2)C1c1csc2ncccc12 (centres unmarked) [Example C66, 3-bromobenzyl 5-acetyl-2,6-dimethyl-4-(thieno[2,3-b]pyridin-3-yl)-1,4-dihydropyridine-3-carboxylate] | < 0.1
CC(=O)C1=C(C)NC(C2CC2)=C(C(=O)OCc2ccc(F)cc2)C1c1csc2ncccc12 (centres unmarked) [Example J42, 4-fluorobenzyl 5-acetyl-2-cyclopropyl-6-methyl-4-(thieno[2,3-b]pyridin-3-yl)-1,4-dihydropyridine-3-carboxylate] | < 0.1
CC1=C(C#N)C(c2csc3c(C#N)cccc23)C(C(=O)OCC2CC2)=C(N)N1 (centres unmarked) [Example D24, cyclopropylmethyl 2-amino-5-cyano-4-(7-cyanobenzo[b]thiophen-3-yl)-6-methyl-1,4-dihydropyridine-3-carboxylate] | 0.1 to 1
CC(=O)C1=C(C)NC(C)=C(C(=O)OCc2ccc(Br)cc2)C1c1csc2ncccc12 (centres unmarked) [Example C65, 4-bromobenzyl 5-acetyl-2,6-dimethyl-4-(thieno[2,3-b]pyridin-3-yl)-1,4-dihydropyridine-3-carboxylate] | 0.1 to 1
CC(=O)C1=C(C)NC(C)=C(C(=O)OCC2CCOCC2)C1c1csc2ccc(Cl)cc12 (centres unmarked) [Example C43, (Tetrahydro-2H-pyran-4-yl)methyl 5-acetyl-4-(5-chlorobenzo[b]thiophen-3-yl)-2,6-dimethyl-1,4-dihydropyridine-3-carboxylate] | < 0.1
CC(=O)C1=C(C)NC(C)=C(C(=O)OCc2ccccc2)C1c1csc2ncccc12 (centres unmarked) [Example C39, Benzyl 5-acetyl-2,6-dimethyl-4-(thieno[2,3-b]pyridin-3-yl)-1,4-dihydropyridine-3-carboxylate] | ≥ 1
CC(=O)C1=C(C)NC(C)=C(C(=O)OCc2cccnc2)C1c1csc2c(Br)cccc12 (centres unmarked) [Example C58, Pyridin-3-ylmethyl 5-acetyl-4-(7-bromobenzo[b]thiophen-3-yl)-2,6-dimethyl-1,4-dihydropyridine-3-carboxylate] | 0.1 to 1
CC(=O)C1=C(C)NC(N)=C(C(=O)OCC2CCCCC2)C1c1csc2c(C#N)cccc12 (centres unmarked) [Example D30, Cyclohexylmethyl 5-acetyl-2-amino-4-(7-cyanobenzo[b]thiophen-3-yl)-6-methyl-1,4-dihydropyridine-3-carboxylate] | 0.1 to 1
CC(=O)C1=C(C)NC(N)=C(C(=O)OCc2cccc(F)c2)C1c1csc2c(C#N)cccc12 (centres unmarked) [Example D32, 3-Fluorobenzyl 5-acetyl-2-amino-4-(7-cyanobenzo[b]thiophen-3-yl)-6-methyl-1,4-dihydropyridine-3-carboxylate] | 0.1 to 1
CC(=O)C1=C(C)NC(C)=C(C(=O)OC(C)(C)c2ccccc2)C1c1csc2ncccc12 (centres unmarked) [Example C71, 2-phenylpropan-2-yl 5-acetyl-2,6-dimethyl-4-(thieno[2,3-b]pyridin-3-yl)-1,4-dihydropyridine-3-carboxylate] | ≥ 1
CC(=O)C1=C(C)NC(C)=C(C(=O)OCc2ccccc2)C1c1csc2ccc(F)cc12 (centres unmarked) [Example C41, Benzyl 5-acetyl-4-(5-fluorobenzo[b]thiophen-3-yl)-2,6-dimethyl-1,4-dihydropyridine-3-carboxylate] | 0.1 to 1
CC(=O)C1=C(C)NC(C)=C(C(=O)OCc2cccc(-c3ccncc3)c2)C1c1csc2ncccc12 (centres unmarked) [Example L3, 3-(pyridin-4-yl)benzyl 5-acetyl-2,6-dimethyl-4-(thieno[2,3-b]pyridin-3-yl)-1,4-dihydropyridine-3-carboxylate] | 0.1 to 1
CC(=O)C1=C(C)NC(C)=C(C(=O)OCc2ccncc2)C1c1csc2ccc(F)cc12 (centres unmarked) [Example C46, Pyridin-4-ylmethyl 5-acetyl-4-(5-fluorobenzo[b]thiophen-3-yl)-2,6-dimethyl-1,4-dihydropyridine-3-carboxylate] | 0.1 to 1
CC(=O)C1=C(C)NC(C)=C(C(=O)OCc2cccc(C#N)c2)C1c1csc2ncccc12 (centres unmarked) [Example C72, 3-Cyanobenzyl 5-acetyl-2,6-dimethyl-4-(thieno[2,3-b]pyridin-3-yl)-1,4-dihydropyridine-3-carboxylate] | ≥ 1
COC(=O)C1=C(C=O)NC(C2CC2)=C(C(=O)OC)C1c1csc2c(C#N)cccc12 (centres unmarked) [Example C117, Dimethyl 4-(7-cyanobenzo[b]thiophen-3-yl)-2-cyclopropyl-6-formyl-1,4-dihydropyridine-3,5-dicarboxylate] | 0.1 to 1
COC(=O)C1=C(C)NC(N)=C(C(=O)OCC(C)(C)C)C1c1csc2c(C#N)cccc12 (centres unmarked) [Example D43, 5-Methyl 3-neopentyl 2-amino-4-(7-cyanobenzo[b]thiophen-3-yl)-6-methyl-1,4-dihydropyridine-3,5-dicarboxylate] | ≥ 1
CC(=O)C1=C(C)NC(C)=C(C(=O)OC2CCCCC2)C1c1csc2ncccc12 (centres unmarked) [Example C36, Cyclohexyl 5-acetyl-2,6-dimethyl-4-(thieno[2,3-b]pyridin-3-yl)-1,4-dihydropyridine-3-carboxylate] | ≥ 1
COC(=O)C1=C(C)NC(N)=C(C(=O)OCC2CC2)C1c1csc2c(C#N)cc(F)cc12 (centres unmarked) [Example D39, 3-(Cyclopropylmethyl) 5-methyl 2-amino-4-(7-cyano-5-fluorobenzo[b]thiophen-3-yl)-6-methyl-1,4-dihydropyridine-3,5-dicarboxylate] | 0.1 to 1
CC(=O)C1=C(C)NC(C)=C(C(=O)OCc2ccccc2)C1c1csc2ccc(Cl)cc12 (centres unmarked) [Example C42, Benzyl 5-acetyl-4-(5-chlorobenzo[b]thiophen-3-yl)-2,6-dimethyl-1,4-dihydropyridine-3-carboxylate] | < 0.1
COC(=O)C1=C(C)NC(N)=C(C(=O)OC(C)C)C1c1csc2c(C#N)cccc12 (centres unmarked) [Example D41, 3-Isopropyl 5-methyl 2-amino-4-(7-cyanobenzo[b]thiophen-3-yl)-6-methyl-1,4-dihydropyridine-3,5-dicarboxylate] | < 0.1
